BindingDB's records for doi:10.7270/Q2QR4VJR (Nmmlsc, 2010)

Molecular target: T1, Regulator of G-protein signaling 16 (Homo sapiens, UniProt O15492)
T1 sequence (O15492 whole entry): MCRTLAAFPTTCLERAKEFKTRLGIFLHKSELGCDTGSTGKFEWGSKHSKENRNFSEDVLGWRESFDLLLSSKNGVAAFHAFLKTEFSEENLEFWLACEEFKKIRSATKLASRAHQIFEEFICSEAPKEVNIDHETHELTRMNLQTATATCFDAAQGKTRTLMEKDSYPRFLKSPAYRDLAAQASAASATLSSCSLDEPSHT
Experiment: RGS16-Galphao binding modulators, SAR follow-up, biochemical, multiplexed bead flow cytometry, SAR compounds (AID 2298)

Ki [nM] | SMILES
20 | NS(=O)(=O)c1ccc(N=NCc2ccc(O)c(O)c2O)c([N+](=O)[O-])c1 [4-[[(E)-(2,3-dihydroxy-4-oxo-1-cyclohexa-2,5-dienylidene)methyl]hydrazo]-3-nitrobenzenesulfonamide]
100 | O=C1C(Cl)=C(N2CCCCC2)C(=O)C(Cl)=C1c1cnc(N2CCCCC2)s1 [MLS000550549]
